From ChEMBL document CHEMBL3217489, “Minisci reactions: Versatile CH-functionalizations for medicinal chemists” (Medchemcomm, 2011)

Assays:
Adenosine deaminase = molecular target: T1, Adenosine deaminase (Bos taurus, UniProt P56658); assay: Inhibition of calf duodenum adenosine deaminase
T1 sequence (P56658 whole entry): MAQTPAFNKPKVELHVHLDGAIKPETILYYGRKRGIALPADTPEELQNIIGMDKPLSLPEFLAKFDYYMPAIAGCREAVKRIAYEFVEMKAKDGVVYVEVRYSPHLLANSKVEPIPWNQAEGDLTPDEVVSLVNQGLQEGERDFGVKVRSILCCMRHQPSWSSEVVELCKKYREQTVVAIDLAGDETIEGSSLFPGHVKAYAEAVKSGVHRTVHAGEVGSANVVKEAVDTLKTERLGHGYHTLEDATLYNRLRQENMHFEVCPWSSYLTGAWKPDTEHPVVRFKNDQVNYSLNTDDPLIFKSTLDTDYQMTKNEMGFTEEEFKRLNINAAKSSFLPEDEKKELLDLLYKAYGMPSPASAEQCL

[1] = molecular target: Neuronal acetylcholine receptor; alpha4/beta2 (Homo sapiens, UniProt P17787+P43681); assay: Inhibition of alpha4beta2 nAChR (unknown origin); type: protein-complex assay
Chain of Neuronal acetylcholine receptor; alpha4/beta2 (P17787 whole entry): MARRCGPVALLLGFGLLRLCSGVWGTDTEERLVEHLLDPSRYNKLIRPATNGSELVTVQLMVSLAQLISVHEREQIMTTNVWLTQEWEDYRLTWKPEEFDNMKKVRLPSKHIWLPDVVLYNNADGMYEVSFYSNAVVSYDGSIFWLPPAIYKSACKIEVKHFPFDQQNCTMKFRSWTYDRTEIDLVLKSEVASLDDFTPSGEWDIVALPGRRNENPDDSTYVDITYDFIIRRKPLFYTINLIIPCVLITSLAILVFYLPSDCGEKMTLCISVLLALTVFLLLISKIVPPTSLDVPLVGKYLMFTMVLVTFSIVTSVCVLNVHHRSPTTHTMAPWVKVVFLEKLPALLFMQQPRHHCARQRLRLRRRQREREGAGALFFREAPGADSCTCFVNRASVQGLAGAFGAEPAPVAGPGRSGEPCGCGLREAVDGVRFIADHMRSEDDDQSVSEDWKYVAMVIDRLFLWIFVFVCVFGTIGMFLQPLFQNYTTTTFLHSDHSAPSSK
Chain of Neuronal acetylcholine receptor; alpha4/beta2 (P43681 whole entry): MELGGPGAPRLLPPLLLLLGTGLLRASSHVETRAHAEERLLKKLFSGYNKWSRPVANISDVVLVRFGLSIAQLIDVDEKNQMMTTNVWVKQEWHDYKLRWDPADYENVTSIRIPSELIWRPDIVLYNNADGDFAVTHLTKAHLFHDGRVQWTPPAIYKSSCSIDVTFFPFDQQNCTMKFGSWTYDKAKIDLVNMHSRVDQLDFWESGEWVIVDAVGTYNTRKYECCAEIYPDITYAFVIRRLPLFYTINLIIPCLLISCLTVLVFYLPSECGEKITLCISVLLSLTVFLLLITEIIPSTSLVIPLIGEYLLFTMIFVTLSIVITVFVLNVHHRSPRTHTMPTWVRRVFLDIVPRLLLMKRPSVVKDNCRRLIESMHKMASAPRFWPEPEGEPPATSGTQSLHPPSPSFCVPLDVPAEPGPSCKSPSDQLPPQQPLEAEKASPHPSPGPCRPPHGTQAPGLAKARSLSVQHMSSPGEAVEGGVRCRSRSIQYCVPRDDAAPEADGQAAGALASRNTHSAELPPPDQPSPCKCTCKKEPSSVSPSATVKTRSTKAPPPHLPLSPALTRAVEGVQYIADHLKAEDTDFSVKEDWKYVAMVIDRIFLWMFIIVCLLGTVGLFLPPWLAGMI

[2] = molecular target: T2, Steroid 17-alpha-hydroxylase/17,20 lyase (Homo sapiens, UniProt P05093); assay: Reversible inhibition of human cytochrome P450 17alpha
T2 sequence (P05093 whole entry): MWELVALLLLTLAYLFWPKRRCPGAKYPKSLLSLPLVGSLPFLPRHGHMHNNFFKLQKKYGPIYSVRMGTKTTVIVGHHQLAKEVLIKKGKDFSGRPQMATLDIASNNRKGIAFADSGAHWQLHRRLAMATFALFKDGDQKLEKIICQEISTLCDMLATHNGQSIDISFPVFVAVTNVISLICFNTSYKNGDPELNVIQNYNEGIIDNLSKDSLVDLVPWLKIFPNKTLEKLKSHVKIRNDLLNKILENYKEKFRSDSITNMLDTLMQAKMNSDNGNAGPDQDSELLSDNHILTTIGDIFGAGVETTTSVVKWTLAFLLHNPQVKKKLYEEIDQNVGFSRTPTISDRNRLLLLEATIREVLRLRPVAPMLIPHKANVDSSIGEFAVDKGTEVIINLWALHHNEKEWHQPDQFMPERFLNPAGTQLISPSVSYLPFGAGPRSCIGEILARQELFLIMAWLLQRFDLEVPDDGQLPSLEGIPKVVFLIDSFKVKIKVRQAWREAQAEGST

[3] = molecular target: T2, Steroid 17-alpha-hydroxylase/17,20 lyase; assay: Irreversible inhibition of human cytochrome P450 17alpha

| Ki (Adenosine deaminase) | SMILES | other results |
| --- | --- | --- |
| 9400 nM | OCc1ncnc2c1ncn2[C@@H]1O[C@H](CO)[C@@H](O)[C@H]1O |  |
| 12500 nM | OCC1NC=Nc2c1ncn2[C@@H]1O[C@H](CO)[C@@H](O)[C@H]1O (single isomer, unassigned; diastereomer 2) |  |
|  | Clc1ccc2c(n1)CC1CNCC2C1 (racemic) | Ki [1]: 3.5 nM |
|  | Clc1cc2c(cn1)C1CNCC(C2)C1 (racemic) | Ki [1]: 0.5 nM |
| 760 nM | OCC1NC=Nc2c1ncn2[C@@H]1O[C@H](CO)[C@@H](O)[C@H]1O (single isomer, unassigned; diastereomer 1) |  |
|  | C[C@]12CC[C@H]3[C@@H](CC=C4C[C@@H](O)CC[C@@]43C)[C@@H]1CC[C@H]2c1ccncc1 | IC50 [2]: 27 nM |
|  | C[C@]12CC[C@H](O)CC1=CC[C@@H]1[C@@H]2CC[C@]2(C)C(c3cccnc3)=CC[C@@H]12 [ABIRATERONE] | IC50 [3]: 5 nM |

| SMILES | Ki (Adenosine deaminase) | other results |
| --- | --- | --- |
| OC[C@H]1O[C@@H](n2cnc3cncnc32)[C@H](O)[C@@H]1O [NEBULARINE] | 9300 nM |  |
